# Reference: US11491132B2, “Methods for treating thrombocytopenia” (Enzychem Lifesciences Corporation, priority 2014, dated 2022)
# Assays:
# STAT6 = target: T1, STAT6 (Homo sapiens, UniProt P42226); test: Dephosphorylation of STAT6 in PLAG treated cells, western blot; format: cell-based; design: endogenous in cells; host or cells: U937, A549, Jurkat; details: U937, Jurkat and A549 cells; PLAG 0.01 to 10 μg/ml; 15 min after 10 ng/ml IL-4
# T1 sequence (P42226 1-847): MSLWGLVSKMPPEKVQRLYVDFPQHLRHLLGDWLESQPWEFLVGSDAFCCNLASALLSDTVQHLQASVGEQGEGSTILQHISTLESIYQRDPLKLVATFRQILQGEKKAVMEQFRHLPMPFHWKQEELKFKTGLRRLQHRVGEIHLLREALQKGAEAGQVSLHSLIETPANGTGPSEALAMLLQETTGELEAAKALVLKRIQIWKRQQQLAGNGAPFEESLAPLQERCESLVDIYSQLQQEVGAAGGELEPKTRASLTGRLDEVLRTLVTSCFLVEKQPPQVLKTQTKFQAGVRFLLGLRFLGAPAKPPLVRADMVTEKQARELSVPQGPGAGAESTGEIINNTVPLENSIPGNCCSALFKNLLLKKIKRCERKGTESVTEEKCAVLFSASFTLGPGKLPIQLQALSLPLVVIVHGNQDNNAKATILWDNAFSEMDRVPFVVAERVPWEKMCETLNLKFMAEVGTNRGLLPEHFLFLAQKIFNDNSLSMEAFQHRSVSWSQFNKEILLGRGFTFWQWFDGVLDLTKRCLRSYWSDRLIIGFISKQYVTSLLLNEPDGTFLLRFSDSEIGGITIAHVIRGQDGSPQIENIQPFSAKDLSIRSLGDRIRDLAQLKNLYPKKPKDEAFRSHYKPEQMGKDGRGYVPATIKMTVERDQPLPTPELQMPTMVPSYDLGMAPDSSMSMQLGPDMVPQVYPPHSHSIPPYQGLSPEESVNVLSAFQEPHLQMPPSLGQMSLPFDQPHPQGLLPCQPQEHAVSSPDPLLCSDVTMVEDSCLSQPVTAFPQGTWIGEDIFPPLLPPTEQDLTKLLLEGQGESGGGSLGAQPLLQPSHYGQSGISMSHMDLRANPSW
# Description: Dephosphorylation of STAT6 is examined using anti-phosphorylated STAT6 in U937, A549, and Jurkat cell lysates treated with PLAG concentration from 0.01 to 10 μg/ml. Phosphorylation of STAT6 is induced by treatment with 10 ng/ml of IL-4. Dephosphorylation of STAT1 is examined in the U937 cell lysate treated with PLAG (0.01 to 10 μg/ml). Phosphorylation of STAT1 is induced by 10 ng of IFN-γ treatment. Dephosphorylation of STAT1 and STAT6 is examined at 15 min after stimulation with IFN-γ and IL-4 respectively, in the PLAG pretreated cells. […] The transcriptional activity of STAT6 is decreased by the dephosphorylation of STAT6. […] No effect of PLAG on STAT1 phosphorylation is observed.
# STAT1 = target: T2, STAT1 (Homo sapiens, UniProt P42224); test: Reporter assay for STAT1 transcriptional activity in HepG2 cells; format: cell-based; design: For the STAT1 assay, gene transfected HepG2 (human hepatocyte cell line) is treated with 10 ng of IFN-γ; endogenous in cells; host or cells: HepG2 (gene transfected); details: gene transfected HepG2, 10 ng IFN-γ, PLAG 0.01-10 μg/ml, 12 hours incubation
# T2 sequence (P42224 1-750): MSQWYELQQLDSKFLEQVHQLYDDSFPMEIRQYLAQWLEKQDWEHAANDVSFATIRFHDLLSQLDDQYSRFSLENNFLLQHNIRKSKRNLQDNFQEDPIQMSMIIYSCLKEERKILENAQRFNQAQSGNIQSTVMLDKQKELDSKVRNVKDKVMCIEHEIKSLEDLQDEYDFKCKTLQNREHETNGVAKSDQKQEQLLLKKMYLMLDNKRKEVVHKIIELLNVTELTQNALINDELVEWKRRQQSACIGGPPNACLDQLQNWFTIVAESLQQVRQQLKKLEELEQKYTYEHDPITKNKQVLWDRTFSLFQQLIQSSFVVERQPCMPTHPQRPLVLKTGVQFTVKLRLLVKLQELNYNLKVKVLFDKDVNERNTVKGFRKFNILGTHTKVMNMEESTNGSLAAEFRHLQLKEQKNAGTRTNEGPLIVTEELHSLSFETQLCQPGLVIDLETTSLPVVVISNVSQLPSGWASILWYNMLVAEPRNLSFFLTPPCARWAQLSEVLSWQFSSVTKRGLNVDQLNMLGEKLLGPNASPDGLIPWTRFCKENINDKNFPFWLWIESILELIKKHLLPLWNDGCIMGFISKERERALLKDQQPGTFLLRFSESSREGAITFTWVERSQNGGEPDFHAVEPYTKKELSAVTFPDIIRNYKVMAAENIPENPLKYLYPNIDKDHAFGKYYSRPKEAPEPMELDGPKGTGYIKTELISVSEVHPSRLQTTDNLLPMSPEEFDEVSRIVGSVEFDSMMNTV
# Description: By using STAT6 inhibitor (S6I), it is confirmed that the reduction of Complement 3 in HepG2 cells (human hepatocyte cell line) is regulated by STAT6. […] It is also confirmed that PLAG has selective efficacy on STAT6 over STAT1. FIG. 1 presents graphs showing STAT1 and STAT6 transcriptional activity in the PLAG treated HepG2 cells. NC refers to the unstimulated control cell. For the STAT1 assay, gene transfected HepG2 (human hepatocyte cell line) is treated with 10 ng of IFN-γ and serially diluted PLAG is added (0.01 μg/ml, 0.1 μg/ml, 1 μg/ml, and 10 μg/ml as shown) to see its effect on gene expression in the stimulated cell. For the STAT6 assay, gene transfected HepG2 cells are treated with 10 ng of IL-4 and again serially diluted PLAG is added (0.01 μg/ml, 0.1 μg/ml, 1 μg/ml, and 10 μg/ml as shown) to see its effect on gene expression in the stimulated cell. The assay is carried out following 12 hours incubation of treated cells.
compound,measurement,setting,value
"CCCCC/C=C\C/C=C\CCCCCCCC(=O)OC(COC(C)=O)COC(=O)CCCCCCCCCCCCCCC (racemic) [PLAG, 1-palmitoyl-2-linoleoyl-3-acetylglycerol]",IL-4 treatment induced STAT6 phosphorylation,STAT6,inhibited with increasing PLAG concentrations
same,"STAT1 expression (transcriptional activity, reporter)",STAT1,no effect
